Assay results reported in US20110281911A1, “NOVEL FORMS OF EPERISONE” (Bionevia Pharmaceuticals, Inc., priority 2008, published 2011).
Structures can show the parent of a compound that is named as a salt.

Assay: Solubility in acetonitrile, calculated based on the total solvent used to give a solution
Assay type: physicochemical
Conditions: organic solvent or mixture, thermodynamic from solid

solubility: > 11 mg/mL
SMILES: CCc1ccc(C(=O)C(C)CN2CCCCC2)cc1 (single isomer, unassigned) [substantially enantiopure crystalline eperisone hydrochloride, eperisone hydrochloride]
